Laboratory results: US7144862B2, “Orally administered peptides to ameliorate atherosclerosis” (The Regents of the University of California, priority 2000, dated 2006)

Legend:
human artery wall cells = assay: Lipoproteins from 5F-injected mice tested in human artery wall cell cocultures (lipid hydroperoxides, monocyte chemotactic activity); format: cell-based; details: 20 μg/mouse/day
Description: Cocultures of human artery wall cells, monocyte isolation, isolation of lipoproteins by ultracentrifugation from the plasma of normal human donors or from mouse plasma by FPLC, and determination of lipid hydroperoxides and monocyte chemotactic activity were performed according to standard methods. All human subject participation was with informed consent approved by the UCLA Human Subjects Protection Committee. The protocol for testing mouse lipoproteins in the coculture was also performed as follows: Briefly, LDL and HDL were isolated by FPLC from mouse plasma from mice fed the atherogenic diet and injected with vehicle (PBS), or with peptide 5F at 20 μg/mouse/day. The cocultures were treated with human LDL at 200 μg/ml LDL protein, or mouse LDL at 200 μg/ml or with 200 μg/ml human LDL+human HDL at 350 μg/ml of HDL protein or mouse HDL at 300 μg/ml or with mouse HDL alone at 300 μg/ml. […] The supernatants were collected and analyzed for Auerbach lipid hydroperoxide equivalents.

[1] = Antibody detection by indirect ELISA after 16 weeks of daily injection; format: in vivo, mouse; details: plasma at conclusion of 16-week injection period
Description: To determine whether daily injections of peptides elicited any immune response in mice, indirect ELISA titration (Engvall (1980) Meth. Enzymol. 70:419–439) was carried out with plasma taken from mice at the time of organ collection (following sixteen weeks of daily injection). Plates were coated with the injected peptides or MoAI (10 μg/ml). Plates were incubated overnight. After thorough washing with borate buffered saline (pH 8.2) containing 0.05% Tween 20, and blocking with buffer (0.1% gelatin and 0.1% BSA in borate buffer) for 1 h, 200 μl of the diluted mouse plasma (1:100 dilution) samples were serially diluted 1:1 with borate-buffered saline. Biotinylated goat antibody to mouse IgG (0.1 μg/ml) was then added to the wells and the plates were treated with SA-HRP (Streptavidin-horse radish peroxidase) for an hour and developed with ABTS and peroxide as substrate. The plates were incubated overnight at room temperature after every addition of antigen/antibody and washed thoroughly with borate buffered saline (pH 8.2) containing 0.05% Tween 20, and blocked with buffer (0.1% gelatin and 0.1% BSA in borate buffer) for 1 h before the next addition.

[2] = biological target: T1, lecithin:cholesterol acyl transferase (LCAT) (Homo sapiens, UniProt P04180); assay: Assay of LCAT activity; format: biochemical; details: 20 μg/ml peptide, egg PC-cholesterol vesicles
T1 construct: LCAT was isolated from fresh normolipidemic plasma by the method of Albers et al; from tissue; host or cells: fresh normolipidemic plasma
T1 sequence (P04180 25-440): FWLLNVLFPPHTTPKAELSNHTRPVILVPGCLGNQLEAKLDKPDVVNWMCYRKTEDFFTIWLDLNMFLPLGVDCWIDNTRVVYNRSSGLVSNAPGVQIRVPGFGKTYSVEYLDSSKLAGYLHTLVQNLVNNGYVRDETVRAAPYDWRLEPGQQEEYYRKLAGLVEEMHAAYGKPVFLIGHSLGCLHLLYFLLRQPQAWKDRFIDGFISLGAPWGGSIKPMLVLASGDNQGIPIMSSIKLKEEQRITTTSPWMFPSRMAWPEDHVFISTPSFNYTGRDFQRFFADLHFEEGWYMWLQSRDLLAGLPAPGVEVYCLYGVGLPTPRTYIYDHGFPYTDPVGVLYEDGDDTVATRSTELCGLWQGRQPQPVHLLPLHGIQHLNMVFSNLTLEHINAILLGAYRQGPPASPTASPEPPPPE
Description: LCAT was isolated from fresh normolipidemic plasma by the method of Albers et al. (1986) Methods Enzymol. 129: 763–783, with some modifications. The density of the plasma was adjusted to 1.21 g/ml and it was centrifuged at 175,000 g for 24 h. The LCAT containing fraction was subjected to Affi-Gel Blue chromatography followed by DE-52 chromatography. LCAT was eluted from the DE-52 column using a 75 to 200 mM NaCl gradient in Tris buffer (10 mM, pH 7.6).
The substrate was prepared by sonicating egg PC/cholesterol (90:20 mol/mol) containing trace amounts of 7α-^3H cholesterol in a Branson 250 sonifier for 12 mins to obtain small unilamellar vesicles. The substrate (50 μl) was incubated with 5 μg of peptide or human apo A-I and 50 μl of BSA (40 μg/ml) for 1 h at 37° C. The total volume was brought up to 150 μl. After incubating for 1 h, 100 μl of LCAT was added and incubated for 1 h at 37° C. and the reaction was quenched by spotting 10 μl on a silica strip. Cholesterol and cholesteryl ester were separated by thin layer chromatography of the silica strip in hexane:chloroform (2:1 v/v) mixture. […] The positions of the standards were used to cut the strip into two and the two parts were counted in scintillation fluid in a Packard Tri Carb 4530. […] The activation of LCAT by the peptides is expressed as a percentage of the total activation by apo A-I .

[3] = Plasma cholesterol lipoprotein profiles (CLiP); format: in vivo, mouse; details: 16 weeks atherogenic diet, daily i.p.
Description: Plasma cholesterol lipoprotein profiles were measured using our recently-developed CLiP method (Garber et al. (2000) J. Lipid Res. 41:1020–1026). Briefly, 5 to 10 μl of plasma were analyzed using a single Superose 6 (Pharmacia, Piscataway N.J.) column. Immediately following the column, cholesterol reagent was introduced through a mixing tee, and the eluent:reagent mixture entered a post-column reaction coil. Cholesterol content of the eluent mixture was spectrophotometrically detected at 500 nm, and data points were collected into a computer. The resulting profiles were decomposed into component peaks and analyzed for relative area using PeakFit (SPSS Science, Chicago, Ill.); absolute cholesterol values for total cholesterol and each component peak were determined by comparison with a control sample of known values. In some cases fractions were collected to determine distribution of radioactivity. The CLiP method allowed analysis of individual mouse samples, avoiding the use of pooled samples.

Ac-DWLKAFYDKVFEKFKEFF-NH2 [Peptide 5F, Ac-D-W-L-K-A-F-Y-D-K-V-F-E-K-F-K-E-F-F-NH2]
ability of HDL from injected mice to inhibit human LDL oxidation and LDL-induced monocyte chemotactic activity (human artery wall cells; mouse HDL 300 μg/ml with human LDL 200 μg/ml): as effective in inhibiting human LDL oxidation and preventing LDL-induced monocyte chemotactic activity in the cocultures as was normal human HDL
oxidation of, and monocyte chemotactic activity induced by, LDL from injected mice versus PBS (human artery wall cells; mouse LDL 200 μg/ml): less readily oxidized and induced less monocyte chemotactic activity
antibodies against the injected material [1]: No antibodies were detected
LCAT activation relative to apo A-I (100%) [2]: 80 % of apo A-I
HDL as percent of total cholesterol [3]: (9.24 ± 1.18%*)
IDL + LDL as percent of total cholesterol [3]: (42.80 ± 2.51%)
VLDL as percent of total cholesterol [3]: (47.96 ± 3.26%)
HDL cholesterol ([3]; mean ± SEM): 17.92 ± 2.91 mg/dL
IDL + LDL cholesterol ([3]; mean ± SEM): 83.37 ± 8.15 mg/dL
TC (total cholesterol) ([3]; mean ± SEM): 201.63 ± 25.21 mg/dL
VLDL cholesterol ([3]; mean ± SEM): 100.34 ± 15.72 mg/dL
